Data taken from ChEMBL document CHEMBL1132910, “SAR of 4-hydroxypiperidine and hydroxyalkyl substituted heterocycles as novel p38 map kinase inhibitors” (Bioorg Med Chem Lett, 2000).

Legend:
[1] = molecular target: T1, Prostaglandin G/H synthase 1 (Ovis aries, UniProt P05979); assay: Inhibition of Prostaglandin G/H synthase 1, COX-1
T1 sequence (P05979 whole entry): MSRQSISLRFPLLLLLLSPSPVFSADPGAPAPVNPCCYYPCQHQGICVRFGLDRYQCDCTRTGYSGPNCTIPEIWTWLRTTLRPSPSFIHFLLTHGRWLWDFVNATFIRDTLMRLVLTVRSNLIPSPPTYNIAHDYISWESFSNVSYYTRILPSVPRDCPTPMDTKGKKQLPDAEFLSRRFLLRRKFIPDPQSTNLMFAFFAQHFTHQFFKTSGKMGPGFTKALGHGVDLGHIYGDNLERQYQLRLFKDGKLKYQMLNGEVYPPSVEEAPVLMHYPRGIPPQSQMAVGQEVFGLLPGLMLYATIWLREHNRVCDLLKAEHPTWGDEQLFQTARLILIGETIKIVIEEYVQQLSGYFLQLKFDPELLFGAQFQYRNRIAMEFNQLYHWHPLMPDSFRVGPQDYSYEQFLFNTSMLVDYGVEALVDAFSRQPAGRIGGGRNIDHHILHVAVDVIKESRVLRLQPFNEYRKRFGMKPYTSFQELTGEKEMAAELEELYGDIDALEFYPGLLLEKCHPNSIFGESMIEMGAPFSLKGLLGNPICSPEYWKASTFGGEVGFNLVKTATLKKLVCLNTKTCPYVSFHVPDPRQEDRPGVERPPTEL

[2] = molecular target: Mitogen-activated protein kinase 14 (Mus musculus, UniProt P47811); assay: Inhibition of murine p38 alpha MAP kinase
Rattus norvegicus [3] = assay: Effect on adjuvant induced arthritis in rats at 25 mg/kg peroral dose twice daily over 10 days; type: functional; conditions: 240 h, route oral
[4] = molecular target: Proto-oncogene tyrosine-protein kinase Src (Gallus gallus, UniProt P00523); assay: Inhibition of c-src kinase
[5] = Bioavailability; type: ADME, organism-based; conditions: eutheria, in vivo
[6] = molecular target: Tyrosine-protein kinase ABL1 (Mus musculus, UniProt P00520); assay: Inhibition of c-abl kinase
Mus musculus [7] = assay: (§1) Inhibition of LPS-induced TNF-alpha release in mice at 20 mg/kg; type: functional
[8] = molecular target: Epidermal growth factor receptor (Homo sapiens, UniProt P00533); assay: Inhibition of EGFR kinase
Rattus norvegicus [9] = assay: Effect on collagen induced arthritis in rats at 25 mg/kg peroral dose twice daily over 10 days; type: functional; conditions: route oral
[10] = molecular target: T2, Dual specificity mitogen-activated protein kinase kinase 6 (Homo sapiens, UniProt P52564); assay: Inhibition of MKK6b kinase
T2 sequence (P52564 whole entry): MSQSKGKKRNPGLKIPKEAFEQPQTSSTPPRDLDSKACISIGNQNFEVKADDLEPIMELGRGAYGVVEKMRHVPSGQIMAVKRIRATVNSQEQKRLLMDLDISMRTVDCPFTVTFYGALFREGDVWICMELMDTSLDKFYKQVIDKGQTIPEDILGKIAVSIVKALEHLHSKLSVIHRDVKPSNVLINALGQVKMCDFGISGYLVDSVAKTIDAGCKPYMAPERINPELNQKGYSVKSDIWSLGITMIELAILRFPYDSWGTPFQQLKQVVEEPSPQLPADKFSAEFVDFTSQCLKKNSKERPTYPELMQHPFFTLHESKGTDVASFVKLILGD

[11] = molecular target: Mitogen-activated protein kinase 9 (Homo sapiens, UniProt P45984); assay: Inhibition of JNK2 kinase
[12] = molecular target: Mitogen-activated protein kinase 8 (Homo sapiens, UniProt P45983); assay: Inhibition of JNK1 kinase
[13] = molecular target: T3, Mitogen-activated protein kinase 13 (Homo sapiens, UniProt O15264); assay: Inhibition of human p38 delta MAP kinase
T3 sequence (O15264 whole entry): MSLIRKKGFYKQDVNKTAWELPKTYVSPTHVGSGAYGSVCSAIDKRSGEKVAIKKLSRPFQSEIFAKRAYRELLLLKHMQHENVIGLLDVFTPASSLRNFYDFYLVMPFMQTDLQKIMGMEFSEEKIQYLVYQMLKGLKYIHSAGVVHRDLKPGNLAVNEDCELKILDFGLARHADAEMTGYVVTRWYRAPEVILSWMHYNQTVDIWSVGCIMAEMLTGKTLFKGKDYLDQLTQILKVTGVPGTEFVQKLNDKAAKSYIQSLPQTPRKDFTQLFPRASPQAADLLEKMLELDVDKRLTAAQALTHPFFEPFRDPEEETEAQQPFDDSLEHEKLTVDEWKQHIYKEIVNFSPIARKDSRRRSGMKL

[14] = molecular target: Protein kinase C alpha type (Bos taurus, UniProt P04409); assay: Inhibition of PKCalpha kinase
Mus musculus [15] = assay: as §1; type: functional, organism-based; set-up: dose 20 mg/kg
[16] = molecular target: Mitogen-activated protein kinase 1 (Mus musculus, UniProt P63085); assay: Inhibition of ERK2 kinase
[17] = Cmax value at a oral dose of […] mg/kg; type: ADME, organism-based; conditions: in vivo, 20 mg/kg
[18] = molecular target: Mitogen-activated protein kinase 11 (Homo sapiens, UniProt Q15759); assay: Inhibition of human p38 beta MAP kinase
Mitogen-activated protein kinase 11, sequence (Q15759 whole entry): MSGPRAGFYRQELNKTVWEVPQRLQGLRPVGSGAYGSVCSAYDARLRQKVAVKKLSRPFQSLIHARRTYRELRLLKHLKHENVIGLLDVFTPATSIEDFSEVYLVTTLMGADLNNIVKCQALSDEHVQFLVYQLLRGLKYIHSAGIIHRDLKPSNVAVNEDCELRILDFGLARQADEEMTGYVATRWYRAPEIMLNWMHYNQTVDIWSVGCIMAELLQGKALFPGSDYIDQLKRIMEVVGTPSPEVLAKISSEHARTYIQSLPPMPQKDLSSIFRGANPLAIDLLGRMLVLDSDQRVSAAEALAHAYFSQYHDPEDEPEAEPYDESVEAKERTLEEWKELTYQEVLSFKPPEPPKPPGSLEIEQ

Mitogen-activated protein kinase 14, sequence (P47811 whole entry): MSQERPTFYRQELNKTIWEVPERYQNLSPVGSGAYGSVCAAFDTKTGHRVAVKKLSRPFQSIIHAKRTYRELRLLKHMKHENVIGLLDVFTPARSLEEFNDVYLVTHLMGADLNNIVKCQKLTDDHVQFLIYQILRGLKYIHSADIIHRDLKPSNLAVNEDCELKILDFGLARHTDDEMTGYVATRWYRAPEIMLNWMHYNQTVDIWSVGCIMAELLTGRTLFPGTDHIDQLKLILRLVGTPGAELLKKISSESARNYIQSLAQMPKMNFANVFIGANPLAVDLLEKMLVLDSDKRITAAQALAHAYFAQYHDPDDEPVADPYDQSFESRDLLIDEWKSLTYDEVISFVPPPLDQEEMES
Mitogen-activated protein kinase 8, sequence (P45983 whole entry): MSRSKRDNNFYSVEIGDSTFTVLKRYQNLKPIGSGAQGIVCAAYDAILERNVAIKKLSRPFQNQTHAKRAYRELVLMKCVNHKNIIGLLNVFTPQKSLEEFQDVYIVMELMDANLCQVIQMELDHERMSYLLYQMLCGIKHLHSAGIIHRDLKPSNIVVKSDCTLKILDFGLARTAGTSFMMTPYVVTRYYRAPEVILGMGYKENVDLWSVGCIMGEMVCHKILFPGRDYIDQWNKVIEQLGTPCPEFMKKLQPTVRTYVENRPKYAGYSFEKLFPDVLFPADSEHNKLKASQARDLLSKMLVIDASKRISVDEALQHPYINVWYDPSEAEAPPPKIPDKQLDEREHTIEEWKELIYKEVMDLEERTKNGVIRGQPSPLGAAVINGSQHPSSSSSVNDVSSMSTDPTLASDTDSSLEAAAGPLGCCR
Tyrosine-protein kinase ABL1, sequence (P00520 whole entry): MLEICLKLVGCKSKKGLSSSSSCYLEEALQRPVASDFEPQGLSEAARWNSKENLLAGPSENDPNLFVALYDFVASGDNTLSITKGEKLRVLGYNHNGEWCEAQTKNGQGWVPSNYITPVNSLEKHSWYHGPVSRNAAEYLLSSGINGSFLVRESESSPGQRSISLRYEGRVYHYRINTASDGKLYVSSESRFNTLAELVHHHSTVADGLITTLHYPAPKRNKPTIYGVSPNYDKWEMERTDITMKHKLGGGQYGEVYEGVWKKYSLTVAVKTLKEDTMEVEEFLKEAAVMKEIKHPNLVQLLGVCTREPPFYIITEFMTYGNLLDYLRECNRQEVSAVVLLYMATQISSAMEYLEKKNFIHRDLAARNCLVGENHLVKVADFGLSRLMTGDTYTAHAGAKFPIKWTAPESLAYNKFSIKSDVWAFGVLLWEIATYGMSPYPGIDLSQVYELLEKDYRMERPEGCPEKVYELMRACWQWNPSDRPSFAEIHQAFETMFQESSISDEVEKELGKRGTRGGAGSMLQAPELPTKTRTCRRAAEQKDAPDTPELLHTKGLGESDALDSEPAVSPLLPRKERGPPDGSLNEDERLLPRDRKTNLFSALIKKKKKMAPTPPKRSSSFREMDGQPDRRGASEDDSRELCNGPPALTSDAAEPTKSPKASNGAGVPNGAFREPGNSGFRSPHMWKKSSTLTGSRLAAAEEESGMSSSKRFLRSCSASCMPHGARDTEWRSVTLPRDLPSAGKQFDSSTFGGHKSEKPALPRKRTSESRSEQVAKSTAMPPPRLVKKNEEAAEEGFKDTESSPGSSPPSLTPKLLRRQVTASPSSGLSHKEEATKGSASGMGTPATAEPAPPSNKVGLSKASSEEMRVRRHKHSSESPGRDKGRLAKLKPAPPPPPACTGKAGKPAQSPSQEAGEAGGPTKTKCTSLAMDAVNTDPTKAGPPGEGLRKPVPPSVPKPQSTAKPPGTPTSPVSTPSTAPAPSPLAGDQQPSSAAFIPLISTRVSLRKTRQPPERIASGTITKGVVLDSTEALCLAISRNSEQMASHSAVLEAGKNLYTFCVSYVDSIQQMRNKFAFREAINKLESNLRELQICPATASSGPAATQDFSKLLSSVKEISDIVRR
Mitogen-activated protein kinase 9, sequence (P45984 whole entry): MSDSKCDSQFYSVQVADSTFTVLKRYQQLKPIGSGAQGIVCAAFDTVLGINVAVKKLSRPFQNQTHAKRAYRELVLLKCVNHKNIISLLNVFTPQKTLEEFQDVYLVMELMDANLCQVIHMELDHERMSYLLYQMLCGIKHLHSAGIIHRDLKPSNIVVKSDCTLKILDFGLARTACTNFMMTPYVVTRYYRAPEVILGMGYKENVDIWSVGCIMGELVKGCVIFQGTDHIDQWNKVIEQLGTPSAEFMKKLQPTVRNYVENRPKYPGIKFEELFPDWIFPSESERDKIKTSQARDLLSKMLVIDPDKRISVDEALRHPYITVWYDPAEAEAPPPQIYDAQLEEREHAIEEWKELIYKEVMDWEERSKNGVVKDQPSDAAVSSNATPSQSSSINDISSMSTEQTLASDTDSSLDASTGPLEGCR
Epidermal growth factor receptor, sequence (P00533 whole entry): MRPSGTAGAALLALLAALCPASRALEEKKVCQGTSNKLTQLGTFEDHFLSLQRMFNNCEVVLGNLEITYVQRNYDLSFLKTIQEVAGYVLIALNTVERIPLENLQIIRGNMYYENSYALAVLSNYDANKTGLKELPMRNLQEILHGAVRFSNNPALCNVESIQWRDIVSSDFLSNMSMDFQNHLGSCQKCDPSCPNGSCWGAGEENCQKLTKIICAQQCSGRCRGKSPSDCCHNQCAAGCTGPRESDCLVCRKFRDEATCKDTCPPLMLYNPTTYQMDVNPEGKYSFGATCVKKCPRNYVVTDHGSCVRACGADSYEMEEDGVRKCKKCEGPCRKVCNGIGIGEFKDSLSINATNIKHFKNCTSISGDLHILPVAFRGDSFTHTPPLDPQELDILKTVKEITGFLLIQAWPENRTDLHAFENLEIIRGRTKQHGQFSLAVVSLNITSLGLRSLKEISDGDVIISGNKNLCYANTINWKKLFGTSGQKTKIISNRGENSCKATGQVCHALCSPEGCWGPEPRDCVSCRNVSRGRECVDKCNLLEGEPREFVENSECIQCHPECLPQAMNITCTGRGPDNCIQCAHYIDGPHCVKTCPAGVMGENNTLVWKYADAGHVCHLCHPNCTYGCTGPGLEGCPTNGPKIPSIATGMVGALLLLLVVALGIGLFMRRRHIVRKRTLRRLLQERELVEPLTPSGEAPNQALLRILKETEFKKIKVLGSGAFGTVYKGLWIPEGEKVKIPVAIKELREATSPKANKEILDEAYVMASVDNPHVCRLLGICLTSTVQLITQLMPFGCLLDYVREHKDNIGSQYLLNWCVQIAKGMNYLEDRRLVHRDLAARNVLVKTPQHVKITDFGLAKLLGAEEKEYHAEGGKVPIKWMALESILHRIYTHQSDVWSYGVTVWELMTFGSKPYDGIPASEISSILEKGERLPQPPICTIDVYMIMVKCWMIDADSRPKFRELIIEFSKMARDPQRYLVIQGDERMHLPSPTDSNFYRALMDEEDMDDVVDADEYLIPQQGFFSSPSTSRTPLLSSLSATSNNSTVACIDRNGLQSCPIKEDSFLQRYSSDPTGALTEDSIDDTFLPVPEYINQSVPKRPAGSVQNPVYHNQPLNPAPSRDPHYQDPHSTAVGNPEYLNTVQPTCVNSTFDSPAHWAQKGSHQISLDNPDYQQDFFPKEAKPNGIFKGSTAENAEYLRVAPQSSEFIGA
Mitogen-activated protein kinase 1, sequence (P63085 whole entry): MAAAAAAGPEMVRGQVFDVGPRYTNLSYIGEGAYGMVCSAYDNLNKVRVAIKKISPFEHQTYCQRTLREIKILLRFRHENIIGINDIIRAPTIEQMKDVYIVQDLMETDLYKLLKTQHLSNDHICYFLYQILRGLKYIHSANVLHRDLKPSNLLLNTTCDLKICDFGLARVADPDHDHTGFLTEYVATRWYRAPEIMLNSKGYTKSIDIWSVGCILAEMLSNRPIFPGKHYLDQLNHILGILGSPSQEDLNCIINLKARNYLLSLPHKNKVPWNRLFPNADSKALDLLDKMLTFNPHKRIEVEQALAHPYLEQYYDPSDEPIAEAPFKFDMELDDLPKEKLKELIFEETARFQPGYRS

| Compound | IC50 [1] | IC50 [2] | inhibition in vivo at 20 mg/kg (Mus musculus [7]) | IC50 (Mus musculus [15]) | also measured |
| --- | --- | --- | --- | --- | --- |
| CN1CCC(O)(c2nc(-c3ccc(F)cc3)c(-c3ccncc3)o2)CC1 | > 100 µM | 0.35 µM | 50% | 0.18 µM | inhibition in vivo at 25 mg/kg (Rattus norvegicus [3]): 40%; IC50 [4]: 22.7 µM; bioavailability [5]: 65%; IC50 [6]: 86.8 µM; IC50 [8]: 0.797 µM; ED50 (Rattus norvegicus [9]): 20 mg/kg/day; IC50 [10]: > 100 µM; IC50 [11]: 8.09 µM; IC50 [12]: > 10 µM; IC50 [13]: > 10 µM; IC50 [14]: 51.1 µM; IC50 [16]: > 10 µM; Cmax [17]: 1.96 µM; IC50 [18]: 2.41 µM |
| CC(C)(C)c1nc(-c2ccncc2)c(-c2ccccc2)[nH]1 | 5 µM | 0.45 µM | – | – | – |
| CN1CCC(O)(c2nc(-c3ccncc3)c(-c3ccc(F)cc3)o2)CC1 | – | 2 µM | – | – | – |
| CN1CCC(O)(c2nc(-c3ccc(F)cc3)c(-c3ccncc3)s2)CC1 | 73 µM | 0.45 µM | 0% | 0.145 µM | – |
| CN1CCC(O)(c2nc(-c3ccc(F)cc3)c(-c3ccncc3)[nH]2)CC1 | > 100 µM | 0.09 µM | 77% | 0.015 µM | inhibition in vivo at 25 mg/kg (Rattus norvegicus [3]): 23%; bioavailability [5]: 23%; Cmax [17]: 0.4 µM |
| CN1CCC(O)(c2cc(-c3ccncc3)c(-c3ccc(F)cc3)[nH]2)CC1 | > 100 µM | 0.13 µM | 18% | 0.125 µM | – |

Continued, in another order:

| IC50 [1] | IC50 [2] | Compound | inhibition in vivo at 20 mg/kg (Mus musculus [7]) | IC50 (Mus musculus [15]) | also measured |
| --- | --- | --- | --- | --- | --- |
| 20 µM | 0.15 µM | OC1(c2nc(-c3ccncc3)c(-c3ccc(F)cc3)[nH]2)CCC1 | – | – | – |
| 87 µM | 0.47 µM | CC(C)(O)c1nc(-c2ccncc2)c(-c2ccc(F)cc2)[nH]1 | – | – | – |
| 40 µM | 0.02 µM | OC1(c2nc(-c3ccncc3)c(-c3ccc(F)cc3)[nH]2)CC1 | – | – | – |
| 3 µM | 0.08 µM | OC1(c2nc(-c3ccncc3)c(-c3ccc(F)cc3)[nH]2)CCCC1 | – | – | – |
| 6.3 µM | 0.12 µM | OC1(c2nc(-c3ccncc3)c(-c3ccc(F)cc3)[nH]2)CCCCC1 | – | – | – |
| 0.2 µM | 0.076 µM | OC1(c2nc(-c3ccncc3)c(-c3ccc(F)cc3)[nH]2)CCCCCC1 | – | – | – |
